Values of other authors, collected in patent US20150141462A1, “PHARMACEUTICAL COMPOSITIONS AND METHODS FOR TREATING DRUG ADDICTION AND PREVENTING A DRUG RELAPSE” (priority 2012, published 2015).

Legend:
[1] = not given; remark: listed apart in the source
[2] = tested on: animal models of addiction; settings: mGluR5 antagonists

Row | Structure (SMILES) | extinction of cocaine-induced conditioned place preference (rats) | reinstatement (following methamphetamine self-administration) | extinction following methamphetamine self-administration (in vivo) | cocaine-seeking behavior ([1]; following intravenous self-administration) | reacquisition of cocaine self-administration ([1]; in vivo) | self-administration of drugs of abuse [2]
1 | N#Cc1cccc(C(=O)Nc2cc(-c3ccccc3)nn2-c2ccccc2)c1 [CDPPB, 3-cyano-N-(1,3-diphenyl-1H-pyrazol-5-yl)benzamide] | enhances extinction | reduced reinstatement slightly | improved extinction | reduces cocaine-seeking behavior | deters the reacquisition | 
2 | Cc1cccc(C#Cc2ccccc2)n1.Cl [MPEP, 2-methyl-6-(phenylethynyl)pyridine hydrochloride] |  |  |  |  |  | reduce self-administration of virtually all drugs of abuse
3 | Cc1nc(C#Cc2cccnc2)cs1 [MTEP, 3-((2-methyl-4-thiazolyl)ethynyl)pyridine] |  |  |  |  |  | reduce self-administration of virtually all drugs of abuse
